Results taken from ChEMBL document CHEMBL3108768 (ACS Med Chem Lett, 2014).

How the values were obtained:
[1] = (§1) Inhibition of STX (unknown origin)-induced toxicity in human HeLa cells assessed as protection against toxin-induced inhibition of protein biosynthesis by measuring incorporation of [14C]-leucine into cells preincubated for 1 hr followed by toxin challenge measured after 20 hrs by liquid scintillation counting analysis; format: cell-based
[2] = tested on: HeLa; assay: as §1, with “into cells at 30 uM preincubated for” for “into cells preincubated for”, “counting analysis relative to control” for “counting analysis”; format: cell-based

Compound	EC50 [1]	fold change (FC) [2]
Cc1nc(-c2ccc(C3N(C)c4ccc(F)cc4C(=O)N3c3ccccc3)s2)cs1 (racemic)	102 nM	
Cc1ccc(/C=N/c2ccccc2C(=O)Nc2ccccc2)s1	27000 nM	
Cc1nc(-c2ccc([C@H]3N(C)c4ccc(F)cc4C(=O)N3c3ccccc3)s2)cs1	54 nM	357
Cc1nc(-c2ccc([C@@H]3N(C)c4ccc(F)cc4C(=O)N3c3ccccc3)s2)cs1	2400 nM	68
